Test in all cases: NCI anticancer screen, dose series, 48 h
Assay [1] deals with 786-0.
For assay [2], the system named is A549.
In assay [3] the test system is BT-549.
Assay [4] concerns EKVX.
Assay [5] relates to HCT-116.
Assay [6] deals with HT-29.
The subject of assay [7] is LOX IMVI.
For assay [8], the system named is NCI/ADR-RES.
The subject of assay [9] is OVCAR-3.
Assay [10] concerns OVCAR-8.
Assay [11] relates to RXF 393.
The subject of assay [12] is SF-268.
Assay [13] relates to SK-OV-3.
Assay [14] deals with SN12C.
The subject of assay [15] is SNB-19.
Assay [16] concerns SR.
Assay [17] relates to TK-10.
Assay [18] deals with A498.
Assay [19] relates to CCRF-CEM.
Assay [20] deals with MDA-N.

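These data come from cells grown in 96-well plates and exposed to compound for 48 hours at five concentrations. At the GI50, growth is halved.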 The source made the active and inactive calls. No stated cut-off is given here; in the data, active = GI50 up to about 1.1 µM and inactive = higher.

Eleven molecules from ChEMBL document CHEMBL1201862, “PubChem BioAssay data set” (2004) can be followed below.

As to `C/C(=C\CO)CC/C=C(\C)CNc1ccccc1`, the GI50 in [1] is > 100 µM (inactive); in [2], 50.8 µM (inactive); in assay [3], 18.6 µM (inactive); in [4] it was 23.9 µM (inactive); in [5], 54.5 µM (inactive); in assay [6], 19.4 µM (inactive). The GI50 in assay [7] is 57.7 µM (inactive); in assay [8] it was 40.4 µM (inactive); in [9] it was 18.2 µM (inactive); in assay [10], 82.8 µM (inactive); in assay [11] it was 48.1 µM (inactive); in assay [12] it was 73.1 µM (inactive). Moreover, the GI50 in assay [13] was > 100 µM (inactive); in [14], 57.5 µM (inactive); in assay [15], 62.5 µM (inactive); in [16], 34.3 µM (inactive); in assay [17] it was 20.5 µM (inactive).
Take `CCCCCCCCC[C@@H]1C[C@@H]2CCC3C(C(=O)OCCCCNC(=O)OCc4ccccc4)=C(C)N=C(N1)N32` (stereo not given in full): the GI50 in assay [1] is 1.76 µM (inactive); in assay [18], 4.66 µM (inactive); in assay [2] it was 4.57 µM (inactive); in assay [3], 3.67 µM (inactive); in assay [19] it was 2.52 µM (inactive); in [4], 2.72 µM (inactive). In addition, the GI50 in assay [5] is 3.11 µM (inactive); in [6] it was 3.29 µM (inactive); in [7], 2.09 µM (inactive); in assay [8] it was 2.62 µM (inactive); in [9], 4.04 µM (inactive); in assay [10], 2.58 µM (inactive). Further, the GI50 in assay [11] was 2.55 µM (inactive); in assay [12], 2.85 µM (inactive); in [13] it was 3.2 µM (inactive); in [14], 3.13 µM (inactive); in assay [15], 6.18 µM (inactive); in [17], 4.5 µM (inactive).
Turning to `CO/N=C/c1c(-c2ccc(Cl)cc2)c(/C=N/OC)n2c1sc1ccccc12`, the GI50 in [1] was > 100 µM (inactive); in assay [2] it was > 100 µM (inactive); in assay [3], > 100 µM (inactive); in assay [19], 70.1 µM (inactive); in assay [4] it was > 100 µM (inactive); in assay [5], > 100 µM (inactive). Moreover, the GI50 in assay [6] is 81.8 µM (inactive); in [7] it was > 100 µM (inactive); in [20], > 100 µM (inactive); in assay [8], > 100 µM (inactive); in assay [9], > 100 µM (inactive); in assay [10], > 100 µM (inactive). Further, the GI50 in assay [11], in [12], in assay [13], in [14], in assay [15] and in [17] was > 100 µM (inactive) each time.
Take `Cc1oncc1/N=C1\C=C(O)C(=O)c2ccccc21`: the GI50 was 18.2 µM (inactive) in assay [1]; 13.2 µM (inactive) in assay [18]; 3.9 µM (inactive) in [2]; 12.4 µM (inactive) in [3]; 3.38 µM (inactive) in [19]; 14.6 µM (inactive) in assay [4]. Besides, the GI50 in assay [5] was 3.16 µM (inactive); in assay [6], 3.65 µM (inactive); in assay [7] it was 2.73 µM (inactive); in assay [8] it was 3.85 µM (inactive); in assay [9], 1.9 µM (inactive); in assay [10] it was 2.53 µM (inactive). Further, the GI50 in assay [11] was 13.2 µM (inactive); in [12], 10.5 µM (inactive); in assay [13], 15.7 µM (inactive); in [14] it was 5.73 µM (inactive); in assay [15], 16.3 µM (inactive); in assay [16] it was 4.88 µM (inactive). The GI50 in assay [17] is 25.1 µM (inactive).
Consider `COc1ccc2c(=O)c(-c3cc(OC)c(OC)cc3OC)coc2c1`, for which the GI50 in assay [1] was 4.11 µM (inactive); in assay [18], 8.45 µM (inactive); in assay [2], 5.41 µM (inactive); in assay [3], > 100 µM (inactive); in [19] it was 1.56 µM (inactive); in assay [4], 36.1 µM (inactive). The GI50 in assay [5] is 2.28 µM (inactive); in assay [6] it was 2.35 µM (inactive); in assay [7], 5.51 µM (inactive); in assay [20], 0.262 µM (active); in assay [9], 1.84 µM (inactive); in assay [10] it was 9.73 µM (inactive). The GI50 was 2.45 µM (inactive) in assay [11]; 4.73 µM (inactive) in [12]; 3.02 µM (inactive) in [13]; 13.3 µM (inactive) in [14]; 15.3 µM (inactive) in assay [15]; 1.27 µM (inactive) in assay [16]. Moreover, in assay [17], the GI50 is 31.5 µM (inactive).
On to `CC(=O)N1c2cc(/N=N/N(C)C)ccc2NC(=O)CC1C` (stereo not given), for which the GI50 in assay [1], in assay [2], in assay [3], in [19], in [4] and in assay [5] was > 100 µM (inactive) each time. Further, the GI50 in assay [6], in assay [20], in assay [8], in assay [9], in assay [10] and in assay [11] was > 100 µM (inactive) in each case. Also, the GI50 in [12], in assay [13], in assay [14], in assay [15] and in assay [17] was > 100 µM (inactive) each time.
As for `CN(C)/C=N/Cc1ccc2c(c1)OCO2`, the GI50 in assay [1], in assay [18], in [2], in [19], in assay [4] and in assay [5] was > 100 µM (inactive) throughout. Moreover, the GI50 in assay [6], in [7], in assay [20], in [8], in assay [9] and in assay [10] was > 100 µM (inactive) each time. Moreover, the GI50 in [11], in assay [12], in [13], in [14], in [15] and in assay [16] was > 100 µM (inactive) each time. Besides, in [17], the GI50 is > 100 µM (inactive).
As for `O=C(CSCC(=O)N/N=C\c1cc(Cl)cc(Cl)c1O)N/N=C\c1cc(Cl)cc(Cl)c1O`, the GI50 was 6.46 µM (inactive) in assay [1]; 18.7 µM (inactive) in [2]; 4.81 µM (inactive) in assay [3]; 0.294 µM (active) in assay [19]; 4.45 µM (inactive) in assay [4]; 2.9 µM (inactive) in assay [5]. Besides, the GI50 in assay [6] was 10.5 µM (inactive); in assay [7], 1.38 µM (inactive); in assay [8] it was 2.96 µM (inactive); in [9] it was 1.69 µM (inactive); in [10], 2.1 µM (inactive); in [11] it was 20.5 µM (inactive). Moreover, the GI50 in assay [12] is 2.32 µM (inactive); in assay [13] it was 8.55 µM (inactive); in assay [14] it was 4.33 µM (inactive); in assay [15] it was 16.7 µM (inactive); in assay [16], 1.77 µM (inactive); in assay [17] it was 3.63 µM (inactive).
Take `N=C(N)N/N=C/c1c(-c2cccc([N+](=O)[O-])c2)nc2n1CCS2`: the GI50 in assay [1] is 29.3 µM (inactive); in [18] it was 17 µM (inactive); in assay [2], 18.5 µM (inactive); in [3], 15.9 µM (inactive); in assay [19], 22.2 µM (inactive); in [4] it was 25.4 µM (inactive). Further, the GI50 in [5] is 20.5 µM (inactive); in assay [6], 15.7 µM (inactive); in assay [7], 16.6 µM (inactive); in [8] it was 77.6 µM (inactive); in [9] it was 30.3 µM (inactive); in [10] it was 16.7 µM (inactive). The GI50 in assay [11] is 19.3 µM (inactive); in [12], 19.6 µM (inactive); in assay [14] it was 22.7 µM (inactive); in assay [15] it was 13.8 µM (inactive); in assay [16], 12.7 µM (inactive); in assay [17] it was 23.4 µM (inactive).
As to `COc1c2c(c(CC=C(C)C)c3oc(=O)c(-c4ccc(O)cc4)c(O)c13)OC(C)(C)C=C2` [LONCHOCARPIC ACID], the GI50 is 25.5 µM (inactive) in assay [1]; 31.8 µM (inactive) in assay [18]; 19.1 µM (inactive) in assay [2]; 41.8 µM (inactive) in assay [3]; 23.7 µM (inactive) in assay [19]; 22.3 µM (inactive) in [4]. Moreover, the GI50 in [5] is 15.7 µM (inactive); in assay [6], 30 µM (inactive); in assay [7] it was 34.4 µM (inactive); in assay [8] it was 28.7 µM (inactive); in [9] it was 15.7 µM (inactive); in [10], 29 µM (inactive). The GI50 in assay [11] was 1.41 µM (inactive); in assay [12] it was 14.1 µM (inactive); in assay [14], 27.5 µM (inactive); in assay [15], 29.5 µM (inactive); in assay [16], 18.5 µM (inactive); in [17], 32.4 µM (inactive).
Take `COC[C@@H](/N=C/C(C)(C)C)C(C)C`: the GI50 in assay [1], in [18], in [2], in [19], in assay [4] and in assay [5] was > 100 µM (inactive) throughout. In addition, the GI50 in [6], in assay [7], in assay [20], in [8], in assay [9] and in assay [10] was > 100 µM (inactive) each time. For the same molecule, the GI50 in assay [11], in [12], in assay [13], in assay [14], in assay [15] and in assay [16] was > 100 µM (inactive) in each case. The GI50 in [17] was 72.1 µM (inactive).
